Laboratory results reported in US20250154141A1 (University of Florida Research Foundation, Incorporated, priority 2021, published 2025).
Read-outs that look alike come from different tables or passages of the source.

Assays:
RS4; 11 = test: Cell viability assay (MTS) in RS4; 11 cells; format: cell-based; conditions: Homo sapiens
Procedure: (§1) Acute lymphoblastic leukemia cells (MOLT-4 and RS4; 11) were incubated with increasing concentrations of Bcl-xL degraders for 48 h. Cell viability was measured by tetrazolium-based MTS assay.

MOLT-4 = test: Cell viability assay (MTS) in MOLT-4 cells; format: cell-based; conditions: Homo sapiens
Procedure: as §1

[1] = RS4-11, Table 2, 48 hr, MTS, read-out: Anti-Cancer Activity IC50 (48 hr) RS4, 11
[2] = MOLT-4, Table 2, 48 hr, MTS, read-out: Anti-Cancer Activity IC50 (48 hr) MOLT-4
[3] = RS4-11, Table 2A, 48 hr, MTS, read-out: Anti-Cancer Activity IC50 (48 hr) RS4, 11
[4] = MOLT-4, Table 2A, 48 hr, MTS, read-out: Anti-Cancer Activity IC50 (48 hr) MOLT-4

Row | IC50 (RS4; 11; [1]) [µM] | IC50 (MOLT-4; [2]) [µM] | Structure (SMILES) | other results
1 | 0.02 to 0.1 | 0.1 to 0.5 | Cc1ncsc1-c1ccc([C@H](C)NC(=O)[C@@H]2C[C@@H](O)CN2C(=O)[C@@H](NC(=O)CCCCCCC(=O)N2CCN(CC3(C)CCC(c4ccc(Cl)cc4)=C(CN4CCN(c5ccc(C(=O)NS(=O)(=O)c6ccc(N[C@H](CCN7CCCCC7CO)CSc7ccccc7)c([N+](=O)[O-])c6)cc5)CC4)C3)CC2)C(C)(C)C)cc1 (stereo partly drawn) [Compound 45, (2S,4R)-1-((2S)-2-(8-(4-((4′-chloro-6-((4-(4-(((4-(((2R)-4-(2-(hydroxymethyl)piperidin-1-yl)-1-(phenylthio)butan-2-yl)amino)-3-nitrophenyl)sulfonyl)carbamoyl)phenyl)piperazin-1-yl)methyl)-4-methyl-2,3,4,5-tetrahydro-[1,1′-biphenyl]-4-yl)methyl)piperazin-1-yl)-8-oxooctanamido)-3,3-dimethylbutanoyl)-4-hydroxy-N—((S)-1-(4-(4-methylthiazol-5-yl)phenyl)ethyl)pyrrolidine-2-carboxamide] | –
2 | – | – | Cc1ncsc1-c1ccc([C@H](C)NC(=O)[C@@H]2C[C@@H](O)CN2C(=O)[C@@H](NC(=O)CCCCC(=O)N2CCC(N3CCN(C[C@]4(C)CCC(c5ccc(Cl)cc5)=C(CN5CCN(c6ccc(C(=O)NS(=O)(=O)c7ccc(N[C@H](CCN8CCCOCC8)CSc8ccccc8)c(S(=O)(=O)C(F)(F)F)c7)cc6)CC5)C4)CC3)CC2)C(C)(C)C)cc1 [Compound 120] | IC50 (RS4; 11; [3]): < 0.02 µM; IC50 (MOLT-4; [4]): < 0.02 µM
3 | < 0.02 | 0.02 to 0.1 | CC(=O)N1CCN(CC[C@H](CSc2ccccc2)Nc2ccc(S(=O)(=O)NC(=O)c3ccc(N4CCN(CC5=C(c6ccc(Cl)cc6)CCC(C)(CN6CCN(C(=O)CCCCCCC(=O)N[C@H](C(=O)N7C[C@H](O)C[C@H]7C(=O)N[C@@H](C)c7ccc(-c8scnc8C)cc7)C(C)(C)C)CC6)C5)CC4)cc3)cc2[N+](=O)[O-])CC1 (stereo partly drawn) [Compound 48, (2S,4R)-1-((2S)-2-(8-(4-((6-((4-(4-(((4-(((R)-4-(4-acetylpiperazin-1-yl)-1-(phenylthio)butan-2-yl)amino)-3-nitrophenyl)sulfonyl)carbamoyl)phenyl)piperazin-1-yl)methyl)-4′-chloro-4-methyl-2,3,4,5-tetrahydro-[1,1′-biphenyl]-4-yl)methyl)piperazin-1-yl)-8-oxooctanamido)-3,3-dimethylbutanoyl)-4-hydroxy-N—((S)-1-(4-(4-methylthiazol-5-yl)phenyl)ethyl)pyrrolidine-2-carboxamide] | –
4 | – | – | Cc1ncsc1-c1ccc([C@H](C)NC(=O)[C@@H]2C[C@@H](O)CN2C(=O)[C@@H](NC(=O)CCS(=O)(=O)N2CCN(C[C@]3(C)CCC(c4ccc(Cl)cc4)=C(CN4CCN(c5ccc(C(=O)NS(=O)(=O)c6ccc(N[C@H](CCN7CCCOCC7)CSc7ccccc7)c(S(=O)(=O)C(F)(F)F)c6)cc5)CC4)C3)CC2)C(C)(C)C)cc1 [Compound 109] | IC50 (RS4; 11; [3]): 0.02 to 0.1 µM; IC50 (MOLT-4; [4]): 0.1 to 0.5 µM
5 | 0.02 to 0.1 | < 0.02 | Cc1ncsc1-c1ccc([C@H](C)NC(=O)[C@@H]2C[C@@H](O)CN2C(=O)[C@@H](NC(=O)CCCCCCC(=O)N2CCN(C[C@]3(C)CCC(c4ccc(Cl)cc4)=C(CN4CCN(c5ccc(C(=O)NS(=O)(=O)c6ccc(N[C@H](CCN7CCCOCC7)CSc7ccccc7)c(S(=O)(=O)C(F)(F)F)c6)cc5)CC4)C3)C[C@@H]2C)C(C)(C)C)cc1 [Compound 82] | –
6 | 0.02 to 0.1 | 0.02 to 0.1 | Cc1ncsc1-c1ccc([C@H](C)NC(=O)[C@@H]2C[C@@H](O)CN2C(=O)[C@@H](NC(=O)CCCNC(=O)c2ccc(N3CCN(CC4(C)CCC(c5ccc(Cl)cc5)=C(CN5CCN(c6ccc(C(=O)NS(=O)(=O)c7ccc(N[C@H](CCN8CCOCC8)CSc8ccccc8)c(S(=O)(=O)C(F)(F)F)c7)cc6)CC5)C4)CC3)cn2)C(C)(C)C)cc1 (stereo partly drawn) [Compound 4] | –
7 | 0.02 to 0.1 | 0.1 to 0.5 | Cc1ncsc1-c1ccc([C@H](C)NC(=O)[C@@H]2C[C@@H](O)CN2C(=O)[C@@H](NC(=O)CNC(=O)c2ccc(N3CCN(CCN(C)CC4(C)CCC(c5ccc(Cl)cc5)=C(CN5CCN(c6ccc(C(=O)NS(=O)(=O)c7ccc(N[C@H](CCN8CCOCC8)CSc8ccccc8)c(S(=O)(=O)C(F)(F)F)c7)cc6)CC5)C4)CC3)nc2)C(C)(C)C)cc1 (stereo partly drawn) [Compound 7] | –
8 | 0.02 to 0.1 | 0.5 to 10 | COCC[C@H](CSc1ccccc1)Nc1ccc(S(=O)(=O)NC(=O)c2ccc(N3CCN(CC4=C(c5ccc(Cl)cc5)CCC(C)(CN5CCN(C(=O)CCCCCCC(=O)N[C@H](C(=O)N6C[C@H](O)C[C@H]6C(=O)N[C@@H](C)c6ccc(-c7scnc7C)cc6)C(C)(C)C)CC5)C4)CC3)cc2)cc1[N+](=O)[O-] (stereo partly drawn) [Compound 50, (2S,4R)-1-((2S)-2-(8-(4-((4′-chloro-6-((4-(4-(((4-(((R)-4-methoxy-1-(phenylthio)butan-2-yl)amino)-3-nitrophenyl)sulfonyl)carbamoyl)phenyl)piperazin-1-yl)methyl)-4-methyl-2,3,4,5-tetrahydro-[1,1′-biphenyl]-4-yl)methyl)piperazin-1-yl)-8-oxooctanamido)-3,3-dimethylbutanoyl)-4-hydroxy-N—((S)-1-(4-(4-methylthiazol-5-yl)phenyl)ethyl)pyrrolidine-2-carboxamide] | –
9 | 0.02 to 0.1 | < 0.02 | Cc1ncsc1-c1ccc([C@H](C)NC(=O)[C@@H]2C[C@@H](O)CN2C(=O)[C@@H](NC(=O)CCCCCC(=O)N2CCN(CC3CCN(CC4(C)CCC(c5ccc(Cl)cc5)=C(CN5CCN(c6ccc(C(=O)NS(=O)(=O)c7ccc(N[C@H](CCN8CCOCC8)CSc8ccccc8)c(S(=O)(=O)C(F)(F)F)c7)cc6)CC5)C4)CC3)CC2)C(C)(C)C)cc1 (stereo partly drawn) [Compound 19] | –
10 | < 0.02 | < 0.02 | Cc1ncsc1-c1ccc([C@H](C)NC(=O)[C@@H]2C[C@@H](O)CN2C(=O)[C@@H](NC(=O)CN2CCC(CC(=O)N3CCN(C[C@]4(C)CCC(c5ccc(Cl)cc5)=C(CN5CCN(c6ccc(C(=O)NS(=O)(=O)c7ccc(N[C@H](CCN8CCCOCC8)CSc8ccccc8)c(S(=O)(=O)C(F)(F)F)c7)cc6)CC5)C4)CC3)CC2)C(C)(C)C)cc1 [Compound 76] | –
11 | – | – | Cc1ncsc1-c1ccc([C@H](C)NC(=O)[C@@H]2C[C@@H](O)CN2C(=O)[C@@H](NC(=O)CN2CCN(C(=O)CC(=O)N3CCN(C[C@]4(C)CCC(c5ccc(Cl)cc5)=C(CN5CCN(c6ccc(C(=O)NS(=O)(=O)c7ccc(N[C@H](CCN8CCCOCC8)CSc8ccccc8)c(S(=O)(=O)C(F)(F)F)c7)cc6)CC5)C4)CC3)CC2)C(C)(C)C)cc1 [Compound 115] | IC50 (RS4; 11; RS4-11, 48 h, read-out: Anti-Cancer Activity IC50 (48 hr) RS4, 11): < 0.02 µM; IC50 (MOLT-4; MOLT-4, 48 h, read-out: Anti-Cancer Activity IC50 (48 hr) MOLT-4): < 0.02 µM
12 | < 0.02 | < 0.02 | Cc1ncsc1-c1ccc([C@H](C)NC(=O)[C@@H]2C[C@@H](O)CN2C(=O)[C@@H](NC(=O)CCCCCCC(=O)N2CCN(CC3(C)CCC(c4ccc(Cl)cc4)=C(CN4CCN(c5ccc(C(=O)NS(=O)(=O)c6ccc(N[C@H](CCN7C[C@H]8C[C@@H]7CO8)CSc7ccccc7)c([N+](=O)[O-])c6)cc5)CC4)C3)CC2)C(C)(C)C)cc1 (stereo partly drawn) [Compound 52, (2S,4R)-1-((2S)-2-(8-(4-((6-((4-(4-(((4-(((R)-4-((1R,4R)-2-oxa-5-azabicyclo[2.2.1]heptan-5-yl)-1-(phenylthio)butan-2-yl)amino)-3-nitrophenyl)sulfonyl)carbamoyl)phenyl)piperazin-1-yl)methyl)-4′-chloro-4-methyl-2,3,4,5-tetrahydro-[1,1′-biphenyl]-4-yl)methyl)piperazin-1-yl)-8-oxooctanamido)-3,3-dimethylbutanoyl)-4-hydroxy-N—((S)-1-(4-(4-methylthiazol-5-yl)phenyl)ethyl)pyrrolidine-2-carboxamide] | IC50 (RS4; 11; RS4-11, Table 5, 48 h, read-out: RS4 48 h IC50): 0.0028 µM; IC50 (MOLT-4; MOLT-4, Table 5, 48 h, read-out: MOLT-4 48 h IC50): 0.0152 µM
13 | 0.02 to 0.1 | < 0.02 | Cc1ncsc1-c1ccc([C@H](C)NC(=O)[C@@H]2C[C@@H](O)CN2C(=O)[C@@H](NC(=O)CCCCCNC(=O)c2cnc(N3CCN(C[C@]4(C)CCC(c5ccc(Cl)cc5)=C(CN5CCN(c6ccc(C(=O)NS(=O)(=O)c7ccc(N[C@H](CCN8CCCOCC8)CSc8ccccc8)c(S(=O)(=O)C(F)(F)F)c7)cc6)CC5)C4)CC3)nc2)C(C)(C)C)cc1 [Compound 78] | –
14 | 0.02 to 0.1 | 0.02 to 0.1 | Cc1ncsc1-c1ccc([C@H](C)NC(=O)[C@@H]2C[C@@H](O)CN2C(=O)[C@@H](NC(=O)CCCNC(=O)c2ccc(N3CCN(CC4(C)CCC(c5ccc(Cl)cc5)=C(CN5CCN(c6ccc(C(=O)NS(=O)(=O)c7ccc(N[C@H](CCN8CCOCC8)CSc8ccccc8)c(S(=O)(=O)C(F)(F)F)c7)cc6)CC5)C4)CC3)cc2)C(C)(C)C)cc1 (stereo partly drawn) [Compound 11, (2S,4R)-1-((2S)-2-(4-(4-(4-((4′-chloro-4-methyl-6-((4-(4-(((4-(((R)-4-morpholino-1-(phenylthio)butan-2-yl)amino)-3-((trifluoromethyl)sulfonyl)phenyl)sulfonyl)carbamoyl)phenyl)piperazin-1-yl)methyl)-2,3,4,5-tetrahydro-[1,1′-biphenyl]-4-yl)methyl)piperazin-1-yl)benzamido)butanamido)-3,3-dimethylbutanoyl)-4-hydroxy-N—((S)-1-(4-(4-methylthiazol-5-yl)phenyl)ethyl)pyrrolidine-2-carboxamide] | –
